According to ChEMBL document CHEMBL4715829, “Heterodimeric Rifampicin-Tobramycin conjugates break intrinsic resistance of Pseudomonas aeruginosa to doxycycline and chloramphenicol in vitro and in a Galleria mellonella in vivo model” (Eur J Med Chem, 2019):

Key:
Streptococcus pneumoniae = assay: Antibacterial activity against Streptococcus pneumoniae ATCC 49619 assessed as reduction in bacterial growth incubated for 18 hrs by broth microdilution assay; type: functional
Pseudomonas aeruginosa [1] = assay: Antibacterial activity against Pseudomonas aeruginosa 91433 assessed as fractional inhibitory concentration index in presence of chloramphenicol incubated for 18 hrs by broth microdilution assay; type: functional
Pseudomonas aeruginosa [2] = assay: Antibacterial activity against Pseudomonas aeruginosa 114228 assessed as reduction in bacterial growth incubated for 18 hrs by broth microdilution assay; type: functional
Pseudomonas aeruginosa [3] = assay: Antibacterial activity against Pseudomonas aeruginosa 100036 assessed as fractional inhibitory concentration index in presence of doxycycline incubated for 18 hrs by broth microdilution assay; type: functional
Pseudomonas aeruginosa [4] = assay: Antibacterial activity against wild type Pseudomonas aeruginosa PAO1 assessed as reduction in bacterial growth incubated for 18 hrs by broth microdilution assay; type: functional
Pseudomonas aeruginosa [5] = assay: Antibacterial activity against Pseudomonas aeruginosa PAO1 assessed as reduction in bacterial growth by measuring erythromycin MIC at <=10 uM in presence of erythromycin incubated for 18 hrs by broth microdilution assay based checkerboard assay (reference value: 256 microg/ml); type: functional; conditions: dose microM <=10
Pseudomonas aeruginosa [6] = assay: Antibacterial activity against Pseudomonas aeruginosa 262-101856 assessed as reduction in bacterial growth incubated for 18 hrs by broth microdilution assay; type: functional
[7] = Hemolytic activity in porcine erythrocyte at 1024 ug/ml incubated for 1 hr; type: ADME, cell-based, Sus scrofa; conditions: pig, porcine erythrocytes, at 1024 µg/mL, read-out: Activity
Pseudomonas aeruginosa [8] = assay: Antibacterial activity against Pseudomonas aeruginosa PAO1 assessed as fractional inhibitory concentration index in presence of Erythromycin incubated for 18 hrs by broth microdilution assay based checkerboard assay; type: functional
Pseudomonas aeruginosa [9] = assay: Antibacterial activity against Pseudomonas aeruginosa PAO1 assessed as reduction in bacterial growth by measuring colistin MIC at <=10 uM in presence of colistin incubated for 18 hrs by broth microdilution assay based checkerboard assay (reference value: 1 microg/ml); type: functional; conditions: dose microM <=10
Pseudomonas aeruginosa [10] = assay: Antibacterial activity against Pseudomonas aeruginosa PAO1 assessed as fractional inhibitory concentration index in presence of Colistin incubated for 18 hrs by broth microdilution assay based checkerboard assay; type: functional
[11] = Cytotoxicity against human HepG2 cells assessed as cell viability at 50 uM incubated for 48 hrs by prestoblue assay; type: cell-based; conditions: read-out: Activity
Pseudomonas aeruginosa [12] = assay: Antibacterial activity against Pseudomonas aeruginosa PAO1 assessed as reduction in bacterial growth by measuring cefotaxime MIC at <=[…] uM in presence of cefotaxime incubated for 18 hrs by broth microdilution assay based checkerboard assay (reference value: […] microg/ml); type: functional; conditions: dose microM <=10
Pseudomonas aeruginosa [13] = assay: Antibacterial activity against Pseudomonas aeruginosa PAO1 assessed as fractional inhibitory concentration index in presence of Chloramphenicol incubated for 18 hrs by broth microdilution assay based checkerboard assay; type: functional
Pseudomonas aeruginosa [14] = assay: Antibacterial activity against Pseudomonas aeruginosa 259-96918 assessed as fractional inhibitory concentration index in presence of doxycycline incubated for 18 hrs by broth microdilution assay; type: functional
Pseudomonas aeruginosa [15] = assay: Antibacterial activity against Pseudomonas aeruginosa PAO1 assessed as reduction in bacterial growth by measuring trimethoprim MIC at <=10 uM in presence of trimethoprim incubated for 18 hrs by broth microdilution assay based checkerboard assay (reference value: 64 microg/ml); type: functional; conditions: dose microM <=10
Pseudomonas aeruginosa [16] = assay: Antibacterial activity against Pseudomonas aeruginosa PAO1 assessed as fractional inhibitory concentration index in presence of Tigecycline incubated for 18 hrs by broth microdilution assay based checkerboard assay; type: functional
Pseudomonas aeruginosa [17] = assay: Antibacterial activity against Pseudomonas aeruginosa PAO1 assessed as reduction in bacterial growth by measuring pleuromutilin MIC at <=10 uM in presence of pleuromutilin incubated for 18 hrs by broth microdilution assay based checkerboard assay (reference value: 512 microg/ml); type: functional; conditions: dose microM <=10
Escherichia coli [18] = assay: Antibacterial activity against Escherichia coli CAN-ICU 63074 (AMK 32) assessed as reduction in bacterial growth incubated for 18 hrs by broth microdilution assay; type: functional
Escherichia coli [19] = assay: Antibacterial activity against Escherichia coli ATCC 25922 assessed as reduction in bacterial growth incubated for 18 hrs by broth microdilution assay; type: functional
Pseudomonas aeruginosa [20] = assay: Antibacterial activity against Pseudomonas aeruginosa PAO1 assessed as fractional inhibitory concentration index in presence of Fosfomycin incubated for 18 hrs by broth microdilution assay based checkerboard assay; type: functional
Pseudomonas aeruginosa [21] = assay: Antibacterial activity against Pseudomonas aeruginosa PAO1 assessed as fractional inhibitory concentration index in presence of Vancomycin incubated for 18 hrs by broth microdilution assay based checkerboard assay; type: functional
Pseudomonas aeruginosa [22] = assay: Antibacterial activity against Pseudomonas aeruginosa PAO1 assessed as reduction in bacterial growth by measuring minocycline MIC at <=10 uM in presence of minocycline incubated for 18 hrs by broth microdilution assay based checkerboard assay (reference value: 8 microg/ml); type: functional; conditions: dose microM <=10
Staphylococcus aureus = assay: Antibacterial activity against methicillin-resistance Staphylococcus aureus ATCC 33592 assessed as reduction in bacterial growth incubated for 18 hrs by broth microdilution assay; type: functional
Pseudomonas aeruginosa [23] = assay: Antibacterial activity against Pseudomonas aeruginosa ATCC 27853 assessed as reduction in bacterial growth incubated for 18 hrs by broth microdilution assay; type: functional
Pseudomonas aeruginosa [24] = assay: Antibacterial activity against Pseudomonas aeruginosa PAO1 assessed as reduction in bacterial growth by measuring nitrofurantoin MIC at <=10 uM in presence of nitrofurantoin incubated for 18 hrs by broth microdilution assay based checkerboard assay (reference value: 512 microg/ml); type: functional; conditions: dose microM <=10
[25] = Cytotoxicity against human HEK293 cells assessed as cell viability at <10 uM incubated for 48 hrs by prestoblue assay; type: cell-based; conditions: read-out: Activity
Pseudomonas aeruginosa [26] = assay: Antibacterial activity against Pseudomonas aeruginosa PAO1 assessed as reduction in bacterial growth by measuring fosfomycin MIC at <=[…] uM in presence of fosfomycin incubated for 18 hrs by broth microdilution assay based checkerboard assay (reference value: […] microg/ml); type: functional; conditions: dose microM <=10
Pseudomonas aeruginosa [27] = assay: Antibacterial activity against Pseudomonas aeruginosa 264-101354 assessed as fractional inhibitory concentration index in presence of doxycycline incubated for 18 hrs by broth microdilution assay; type: functional
Pseudomonas aeruginosa [28] = assay: Antibacterial activity against Pseudomonas aeruginosa 200 harboring efflux mutant assessed as reduction in bacterial growth incubated for 18 hrs by broth microdilution assay; type: functional
Pseudomonas aeruginosa [29] = assay: Antibacterial activity against Pseudomonas aeruginosa PAO1 assessed as fractional inhibitory concentration index in presence of Clindamycin incubated for 18 hrs by broth microdilution assay based checkerboard assay; type: functional
Pseudomonas aeruginosa [30] = assay: Antibacterial activity against Pseudomonas aeruginosa 259-96918 assessed as reduction in bacterial growth incubated for 18 hrs by broth microdilution assay; type: functional
Pseudomonas aeruginosa [31] = assay: Antibacterial activity against Pseudomonas aeruginosa 101243 assessed as fractional inhibitory concentration index in presence of chloramphenicol incubated for 18 hrs by broth microdilution assay; type: functional
Pseudomonas aeruginosa [32] = assay: Antibacterial activity against Pseudomonas aeruginosa PAO1 assessed as fractional inhibitory concentration index in presence of Pleuromutilin incubated for 18 hrs by broth microdilution assay based checkerboard assay; type: functional
Pseudomonas aeruginosa [33] = assay: Antibacterial activity against Pseudomonas aeruginosa PAO1 assessed as fractional inhibitory concentration index in presence of Meropenem incubated for 18 hrs by broth microdilution assay based checkerboard assay; type: functional
Pseudomonas aeruginosa [34] = assay: Antibacterial activity against Pseudomonas aeruginosa PAO1 assessed as fractional inhibitory concentration index in presence of Tobramycin incubated for 18 hrs by broth microdilution assay based checkerboard assay; type: functional
Enterococcus faecium = assay: Antibacterial activity against Enterococcus faecium ATCC 27270 assessed as reduction in bacterial growth incubated for 18 hrs by broth microdilution assay; type: functional

## CO[C@H]1/C=C/O[C@@]2(C)Oc3c(C)c(O)c4c(O)c(c(/C=N/N5CCN(Cc6cn(CCCCCCCCCCCCO[C@@H]7[C@@H](O[C@H]8O[C@H](CO)[C@@H](O)[C@H](N)[C@H]8O)[C@H](N)C[C@H](N)[C@H]7O[C@H]7O[C@H](CN)[C@@H](O)C[C@H]7N)nn6)CC5)c(O)c4c3C2=O)NC(=O)/C(C)=C\C=C\[C@H](C)[C@H](O)[C@@H](C)[C@@H](O)[C@@H](C)[C@H](OC(C)=O)[C@@H]1C.O=C(O)C(F)(F)F.O=C(O)C(F)(F)F.O=C(O)C(F)(F)F.O=C(O)C(F)(F)F.O=C(O)C(F)(F)F
Streptococcus pneumoniae
  MIC: 8 µg/mL
Pseudomonas aeruginosa [1]
  fractional inhibitory concentration index (FICI): 0.25
Pseudomonas aeruginosa [2]
  MIC: > 128 µg/mL
Pseudomonas aeruginosa [3]
  fractional inhibitory concentration index (FICI): 0.07
Pseudomonas aeruginosa [4]
  MIC: 512 µg/mL
Pseudomonas aeruginosa [5]
  MIC: 8 µg/mL
Pseudomonas aeruginosa [6]
  MIC: > 256 µg/mL
[7]
  hemolysis at 1 h, 1024 ug/ml: < 2%
Pseudomonas aeruginosa [8]
  fractional inhibitory concentration index (FICI): 0.06
Pseudomonas aeruginosa [9]
  MIC: 0.25 µg/mL
Pseudomonas aeruginosa [10]
  fractional inhibitory concentration index (FICI): 0.26
[11]
  viability at 48 h, 50 µM: > 70%
Pseudomonas aeruginosa [12]
  MIC: 16 µg/mL
Pseudomonas aeruginosa [13]
  fractional inhibitory concentration index (FICI): 0.09
Pseudomonas aeruginosa [14]
  fractional inhibitory concentration index (FICI): <0.133
Pseudomonas aeruginosa [15]
  MIC: 16 µg/mL
Pseudomonas aeruginosa [16]
  fractional inhibitory concentration index (FICI): 0.51
Pseudomonas aeruginosa [17]
  MIC: 256 µg/mL
Escherichia coli [18]
  MIC: 32 µg/mL
Escherichia coli [19]
  MIC: 16 µg/mL
Pseudomonas aeruginosa [20]
  fractional inhibitory concentration index (FICI): 0.28
Pseudomonas aeruginosa [21]
  fractional inhibitory concentration index (FICI): 0.53
Pseudomonas aeruginosa [22]
  MIC: 2 µg/mL
Staphylococcus aureus
  MIC: > 32 µg/mL
Pseudomonas aeruginosa [23]
  MIC: > 32 µg/mL
Pseudomonas aeruginosa [24]
  MIC: 256 µg/mL
[25]
  viability at 48 h: > 90%
Pseudomonas aeruginosa [26]
  MIC: 4 µg/mL
Pseudomonas aeruginosa [27]
  fractional inhibitory concentration index (FICI): 0.078
Pseudomonas aeruginosa [28]
  MIC: 128 µg/mL
Pseudomonas aeruginosa [29]
  fractional inhibitory concentration index (FICI): 0.26
Pseudomonas aeruginosa [30]
  MIC: > 128 µg/mL
Pseudomonas aeruginosa [31]
  fractional inhibitory concentration index (FICI): 0.125
Pseudomonas aeruginosa [32]
  fractional inhibitory concentration index (FICI): 0.53
Pseudomonas aeruginosa [33]
  fractional inhibitory concentration index (FICI): 1.03
Pseudomonas aeruginosa [34]
  fractional inhibitory concentration index (FICI): 1.03
Enterococcus faecium
  MIC: > 32 µg/mL
